According to paper PMC4035740 (The Journal of General Physiology, 2014):
Where a chain is given by its changes, count along the chain named. Where two headings read alike, the source gives them in different places.

Tests used:
Assay type in all cases: cell-based
rat P2X2 WT = target: T1, rat P2X2 WT (Rattus norvegicus, UniProt P49653); assay: ATP dose–response, two-electrode voltage clamp in Xenopus oocytes, WT
T1 sequence (P49653 1-472): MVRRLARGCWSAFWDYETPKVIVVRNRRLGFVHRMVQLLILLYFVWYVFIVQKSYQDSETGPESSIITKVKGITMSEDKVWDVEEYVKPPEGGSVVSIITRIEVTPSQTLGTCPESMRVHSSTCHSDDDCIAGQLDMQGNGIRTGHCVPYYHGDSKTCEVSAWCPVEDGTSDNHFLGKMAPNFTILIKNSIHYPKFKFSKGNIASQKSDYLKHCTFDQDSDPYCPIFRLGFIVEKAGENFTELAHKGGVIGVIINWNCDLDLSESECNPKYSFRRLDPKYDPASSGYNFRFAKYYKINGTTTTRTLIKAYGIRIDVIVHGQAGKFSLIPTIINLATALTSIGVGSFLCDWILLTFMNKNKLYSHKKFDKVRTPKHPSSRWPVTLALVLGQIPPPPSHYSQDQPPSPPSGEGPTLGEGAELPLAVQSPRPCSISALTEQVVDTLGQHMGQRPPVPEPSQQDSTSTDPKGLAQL

[1] = target: T2, rat P2X2 tandem trimer WT–WT–WT (Rattus norvegicus, UniProt P49653); assay: ATP dose–response, two-electrode voltage clamp in Xenopus oocytes, WT–WT–WT
T2 sequence (P49653 1-472) 1: T1 sequence (P49653 1-472)
T2 sequence (P49653 1-472) 2: T1 sequence (P49653 1-472)
T2 sequence (P49653 1-472) 3: T1 sequence (P49653 1-472)

[2] = target: T3, rat P2X2 tandem trimer K308A–WT–WT (Rattus norvegicus, UniProt P49653, K308A); assay: ATP dose–response, two-electrode voltage clamp in Xenopus oocytes, K308A–WT–WT
T3 sequence (P49653 1-472 K308A): T1 sequence (P49653 1-472) with K308A
T3 sequence (P49653 1-472) 2: T1 sequence (P49653 1-472)
T3 sequence (P49653 1-472) 3: T1 sequence (P49653 1-472)

[3] = target: T4, rat P2X2 tandem trimer WT–K308A–WT (Rattus norvegicus, UniProt P49653, K308A); assay: ATP dose–response, two-electrode voltage clamp in Xenopus oocytes, WT–K308A–WT
T4 sequence (P49653 1-472) 1: T1 sequence (P49653 1-472)
T4 sequence (P49653 1-472 K308A): T1 sequence (P49653 1-472) with K308A
T4 sequence (P49653 1-472) 3: T1 sequence (P49653 1-472)

[4] = target: T5, rat P2X2 tandem trimer WT–WT–K308A (Rattus norvegicus, UniProt P49653, K308A); assay: ATP dose–response, two-electrode voltage clamp in Xenopus oocytes, WT–WT–K308A
T5 sequence (P49653 1-472) 1: T1 sequence (P49653 1-472)
T5 sequence (P49653 1-472) 2: T1 sequence (P49653 1-472)
T5 sequence (P49653 1-472 K308A): T1 sequence (P49653 1-472) with K308A

rat P2X2 D315A = target: T6, rat P2X2 D315A (Rattus norvegicus, UniProt P49653, D315A); assay: ATP dose–response, two-electrode voltage clamp in Xenopus oocytes, D315A; conditions: at −160 mV
T6 sequence (P49653 1-472 D315A): T1 sequence (P49653 1-472) with D315A

[5] = target: T7, rat P2X2 tandem trimer D315A–D315A–D315A (Rattus norvegicus, UniProt P49653, D315A); conditions: at −160 mV
T7 sequence (P49653 1-472 D315A) 1: T1 sequence (P49653 1-472) with D315A
T7 sequence (P49653 1-472 D315A) 2: T1 sequence (P49653 1-472) with D315A
T7 sequence (P49653 1-472 D315A) 3: T1 sequence (P49653 1-472) with D315A

[6] = target: T8, rat P2X2 tandem trimer D315A–D315A–WT (Rattus norvegicus, UniProt P49653, D315A); conditions: at −160 mV
T8 sequence (P49653 1-472 D315A) 1: T1 sequence (P49653 1-472) with D315A
T8 sequence (P49653 1-472 D315A) 2: T1 sequence (P49653 1-472) with D315A
T8 sequence (P49653 1-472): T1 sequence (P49653 1-472)

[7] = target: T9, rat P2X2 tandem trimer D315A–WT–WT (Rattus norvegicus, UniProt P49653, D315A); assay: ATP dose–response, two-electrode voltage clamp in Xenopus oocytes, D315A–WT–WT
T9 sequence (P49653 1-472 D315A): T1 sequence (P49653 1-472) with D315A
T9 sequence (P49653 1-472) 2: T1 sequence (P49653 1-472)
T9 sequence (P49653 1-472) 3: T1 sequence (P49653 1-472)

[8] = target: T10, rat P2X2 tandem trimer T339S–T339S–T339S (Rattus norvegicus, UniProt P49653, T339S)
T10 sequence (P49653 1-472 T339S) 1: T1 sequence (P49653 1-472) with T339S
T10 sequence (P49653 1-472 T339S) 2: T1 sequence (P49653 1-472) with T339S
T10 sequence (P49653 1-472 T339S) 3: T1 sequence (P49653 1-472) with T339S

[9] = target: T11, rat P2X2 tandem trimer WT–T339S–T339S (Rattus norvegicus, UniProt P49653, T339S)
T11 sequence (P49653 1-472): T1 sequence (P49653 1-472)
T11 sequence (P49653 1-472 T339S) 2: T1 sequence (P49653 1-472) with T339S
T11 sequence (P49653 1-472 T339S) 3: T1 sequence (P49653 1-472) with T339S

[10] = target: T12, rat P2X2 tandem trimer WT–T339S–WT (Rattus norvegicus, UniProt P49653, T339S); assay: ATP dose–response, two-electrode voltage clamp in Xenopus oocytes, WT–T339S–WT
T12 sequence (P49653 1-472) 1: T1 sequence (P49653 1-472)
T12 sequence (P49653 1-472 T339S): T1 sequence (P49653 1-472) with T339S
T12 sequence (P49653 1-472) 3: T1 sequence (P49653 1-472)

rat P2X2 K308A = target: T13, rat P2X2 K308A (Rattus norvegicus, UniProt P49653, K308A); assay: ATP activation of the K308A mutant channel; conditions: K308A mutation, very high concentrations of ATP (>3 mM)
T13 sequence (P49653 1-472 K308A): T1 sequence (P49653 1-472) with K308A

[11] = target: T14, rat P2X2 tandem trimer K308A&K69A–WT–WT (Rattus norvegicus, UniProt P49653, K308A/K69A); assay: Hetero-assembly test, activation by ATP, K308A&K69A–WT–WT; conditions: 1 mM [ATP], days 1 and 2 after RNA injection
T14 sequence (P49653 1-472 K69A/K308A): T1 sequence (P49653 1-472) with K69A, K308A
T14 sequence (P49653 1-472) 2: T1 sequence (P49653 1-472)
T14 sequence (P49653 1-472) 3: T1 sequence (P49653 1-472)

[12] = target: T15, rat P2X2 tandem trimer WT–K308A&K69A–WT (Rattus norvegicus, UniProt P49653, K308A/K69A); assay: Hetero-assembly test, activation by ATP, WT–K308A&K69A–WT; conditions: 1 mM [ATP], days 1 and 2 after RNA injection
T15 sequence (P49653 1-472) 1: T1 sequence (P49653 1-472)
T15 sequence (P49653 1-472 K69A/K308A): T1 sequence (P49653 1-472) with K69A, K308A
T15 sequence (P49653 1-472) 3: T1 sequence (P49653 1-472)

[13] = target: T16, rat P2X2 tandem trimer WT–WT–K308A&K69A (Rattus norvegicus, UniProt P49653, K308A/K69A); assay: Hetero-assembly test, activation by ATP, WT–WT–K308A&K69A; conditions: 1 mM [ATP], days 1 and 2 after RNA injection
T16 sequence (P49653 1-472) 1: T1 sequence (P49653 1-472)
T16 sequence (P49653 1-472) 2: T1 sequence (P49653 1-472)
T16 sequence (P49653 1-472 K69A/K308A): T1 sequence (P49653 1-472) with K69A, K308A

## Nc1ncnc2c1ncn2[C@@H]1O[C@H](COP(=O)(O)OP(=O)(O)OP(=O)(O)O)[C@@H](O)[C@H]1O [ATP, adenosine triphosphate]
Rat P2X2 WT
  EC50: 14.5 ± 1.2 µM
Rat P2X2 WT; WT, at −160 mV, Xenopus oocytes, mean ± SEM
  Hill coefficient: 1.7 ± 0.2
[1]
  EC50: 19.1 ± 2 µM
[2]
  EC50: 42.3 ± 2.2 µM
[2]; K308A–WT–WT, at −160 mV, mean ± SEM
  Hill coefficient: 1.7 ± 0.18
[3]
  EC50: 22.9 ± 1.8 µM
[4]
  EC50: 33.3 ± 1.65 µM
[4]; WT–WT–K308A, at −160 mV, mean ± SEM
  Hill coefficient: 1.6 ± 1.4
Rat P2X2 D315A; EC50 (1), first phase of biphasic dose–response
  EC50: 1.2 ± 0.6 µM
Rat P2X2 D315A; EC50 (2), second phase of biphasic dose–response
  EC50: 89.1 ± 1.48 µM
Rat P2X2 D315A; first phase
  Hill (1): 2.4 ± 0.7
[5]; EC50 (1), first phase
  EC50: 1.5 ± 0.8 µM
[5]; EC50 (2), second phase
  EC50: 130 ± 5 µM
[5]; first phase
  Hill (1): 3.7 ± 0.6
[6]; EC50 (1), first phase
  EC50: 3.15 ± 0.9 µM
[6]; EC50 (2), second phase
  EC50: 794 ± 12 µM
[7]
  EC50: 6.02 ± 1.1 µM
[7]; D315A–WT–WT, at −160 mV
  Hill: 1.4 ± 0.1
[8]
  EC50: 2.4 ± 0.4 µM
[8]; T339S–T339S–T339S, at −160 mV
  Hill: 1.5 ± 0.3
[9]
  EC50: 6 ± 0.4 µM
[9]; WT–T339S–T339S, at −160 mV
  Hill: 1.5 ± 0.2
[10]
  EC50: 12.2 ± 1.2 µM
[10]; WT–T339S–WT, at −160 mV
  Hill: 1.5 ± 0.9
Rat P2X2 K308A
  channel response to ATP: unresponsive
[11]
  activation in response to ATP: did not show any prominent activation
[12]
  activation in response to ATP: did not show any prominent activation
[13]
  activation in response to ATP: did not show any prominent activation
